Measurements taken from PMC11133627, “CATH-2-derived antimicrobial peptide inhibits multidrug-resistant Escherichia coli infection in chickens” (Frontiers in Cellular and Infection Microbiology, 2024).
Ends that are not written are not given here.

Tests used:
[1] = system: E. coli clinical isolate E1; experiment: microbe, parasite or virus in culture; settings: for MBC against E. coli E1: 50 μL from fully inhibited wells plated on LB agar, colonies counted after 24h 37°C; for MIC against E. coli E1: microbroth dilution, 1×10^6 CFU/mL, 37°C 18h, turbidity
Experimental: (§1) The minimum inhibitory concentrations (MICs) of the AMPs were determined using the microbroth dilution technique ([van Harten et al., 2021]). One hundred microliters of bacterial suspension at a concentration of 1×10^6 CFU/mL was pipetted into a 96-well plate. Then, 100 μL of AMP or gentamicin at various concentrations was added, while the bacterial suspension without AMPs and blank medium were used as controls.

E. coli (ATCC 8739) [2] = format: cell-based, Escherichia coli; settings: ATCC 8739, 1 h
Experimental: The MICs of the AMPs against E. coli (ATCC 8739) at different temperatures and physiological salt concentrations were evaluated. The thermal stability of the AMPs was assessed by incubating them at a concentration of 500 μg/mL for 1h at 0, 37, and 100°C, using untreated AMPs as a control. The salt ion stability of the AMPs was determined by incubating them at a concentration of 500 μg/mL in solutions of NaCl (150 mM), KCl (4.5 mM), MgCl2 (1 mM), and CaCl2 (2.5 mM) for 1h, using untreated samples as controls. The changes in the MICs of the AMPs were assessed following these experimental procedures.

[3] = system: E. coli strains (ATCC 8739 and MDR clinical isolates); format: cell-based, Escherichia coli; settings: ATCC 8739, 18 h
Experimental: as §1

[4] = system: E. coli clinical isolate E12; experiment: microbe, parasite or virus in culture; format: cell-based, Escherichia coli; settings: for MIC against E. coli E12: clinical isolate E12, 18 h; for MBC against E. coli E12: clinical isolate E12, 24 h
Experimental: as §1

[5] = system: E. coli clinical isolate E9; experiment: microbe, parasite or virus in culture; format: cell-based, Escherichia coli; settings: for MIC against E. coli E9: clinical isolate E9, 18 h; for MBC against E. coli E9: clinical isolate E9, 24 h
Experimental: as §1

E. coli (ATCC 8739) [6] = experiment: microbe, parasite or virus in culture; format: cell-based, Escherichia coli; settings: for MIC against E. coli ATCC 8739: ATCC 8739, 18 h; for MBC against E. coli ATCC 8739: ATCC 8739, 24 h
Experimental: as §1

[7] = system: E. coli clinical isolate E14; experiment: microbe, parasite or virus in culture; format: cell-based, Escherichia coli; settings: for MIC against E. coli E14: clinical isolate E14, 18 h; for MBC against E. coli E14: clinical isolate E14, 24 h
Experimental: as §1

[8] = system: E. coli clinical isolate E18; experiment: microbe, parasite or virus in culture; format: cell-based, Escherichia coli; settings: for MIC against E. coli E18: clinical isolate E18, 18 h; for MBC against E. coli E18: clinical isolate E18, 24 h
Experimental: as §1

[9] = system: E. coli clinical isolate E16; experiment: microbe, parasite or virus in culture; format: cell-based, Escherichia coli; settings: for MIC against E. coli E16: clinical isolate E16, 18 h; for MBC against E. coli E16: clinical isolate E16, 24 h
Experimental: as §1

[10] = system: E. coli clinical isolate E12; experiment: Drug-sensitivity test (paper disc, inhibition zone); format: cell-based, Escherichia coli; set-up: key to Drug sensitivity of E. coli E12: R: resistant strains; I: intermediate strains; S: sensitive strains; settings: 6 mm antibiotic paper on LB agar, 1×10^6 CFU/mL, 24h 37°C, inhibition zone diameter
Experimental: (§2) E. coli (ATCC 8739) and clinical isolates of E. coli (E1, E9, E12, E14, E16, and E18) were stored at the Animal Biochemical Laboratory of Shanxi Agricultural University and grown in Luria-Bertani (LB) broth as previously reported ([Zhao et al., 2021]). Circular 6 mm paper pieces were prepared with filter paper and autoclaved for sterilization. […] Then, 0.5 mL of antibiotic solution was added to 100 sterilized papers. Subsequently, the paper pieces were fully infiltrated and dried in a vacuum drying oven to produce antibiotic susceptibility papers. The E. coli strain was retrieved from the -20°C freezer and activated by incubating it on LB agar media at 37°C for 24h. Individual colonies were selected and transferred to LB liquid media. Thereafter, the E. coli suspension was obtained by shaking at 37°C and 160 r/min for 18h. The obtained suspension was centrifuged at 5000 r/min for 5min, after which the supernatant was discarded, and the bacteria were resuspended in fresh medium to a concentration of 1×10^6 CFU/mL. Two hundred microliters of the bacterial suspension mentioned above was spread evenly onto LB agar medium. Then, the antibiotic susceptibility papers were placed on the medium surface using sterile tweezers. After 24h of incubation at 37°C, the diameter of the inhibition zone was measured to determine the susceptibility of E. coli to antibiotics.

[11] = system: E. coli clinical isolate E1; format: cell-based; set-up: key: R: resistant strains; I: intermediate strains; S: sensitive strains; settings: 6 mm antibiotic paper on LB agar, 1×10^6 CFU/mL, 24h 37°C, inhibition zone diameter
Experimental: as §2

[12] = system: E. coli clinical isolate E16; experiment: Drug-sensitivity test (paper disc, inhibition zone); format: cell-based, Escherichia coli; set-up: key to Drug sensitivity of E. coli E16: R: resistant strains; I: intermediate strains; S: sensitive strains; settings: 6 mm antibiotic paper on LB agar, 1×10^6 CFU/mL, 24h 37°C, inhibition zone diameter
Experimental: as §2

[13] = system: 6 E. coli strains (E1, E9, E12, E14, E16, E18); format: cell-based, Escherichia coli; settings: paper disc test
Experimental: as §2

[14] = system: E. coli clinical isolate E9; experiment: Drug-sensitivity test (paper disc, inhibition zone); format: cell-based, Escherichia coli; set-up: key: R: resistant strains; I: intermediate strains; S: sensitive strains; settings: 6 mm antibiotic paper on LB agar, 1×10^6 CFU/mL, 24h 37°C, inhibition zone diameter
Experimental: as §2

E. coli (ATCC 8739) [15] = experiment: as above; format: cell-based, Escherichia coli; set-up: key: R: resistant strains; I: intermediate strains; S: sensitive strains; settings: 6 mm antibiotic paper on LB agar, 1×10^6 CFU/mL, 24h 37°C, inhibition zone diameter
Experimental: as §2

[16] = system: E. coli clinical isolate E18; experiment: as above; format: cell-based, Escherichia coli; set-up: key: R: resistant strains; I: intermediate strains; S: sensitive strains; settings: 6 mm antibiotic paper on LB agar, 1×10^6 CFU/mL, 24h 37°C, inhibition zone diameter
Experimental: as §2

[17] = system: E. coli clinical isolate E14; experiment: as above; format: cell-based, Escherichia coli; set-up: key to Drug sensitivity of E. coli E14: R: resistant strains; I: intermediate strains; S: sensitive strains; settings: 6 mm antibiotic paper on LB agar, 1×10^6 CFU/mL, 24h 37°C, inhibition zone diameter
Experimental: as §2

E. coli (E16) = experiment: Chicken infection with MDR E. coli; format: in vivo
Experimental: Except for the blank control group injected with 500 μL of normal saline, the other four groups were injected with 500 μL of 3×10^9 CFU/mL E. coli (E16) into the pectoral muscles. […] Clinical symptoms and were observed and documented for the chickens in each group after infection. After 72h, the chickens in each group were euthanized and examined for internal organ damage. Paraffin sections were prepared for microscopic examination of pathological changes. Under sterile conditions, 1 g samples of heart, liver, and spleen were collected, and each sample was supplemented with 20 mL of sterile PBS. After thorough grinding, the sample was diluted to the appropriate multiple, and 100 μL of the diluent was spread onto LB agar medium. The plates were incubated for 24h, after which the colonies were counted.

Compound	MBC against E. coli E1 [1] [µg/mL]	MIC against E. coli E1 [1] [µg/mL]	MIC against E. coli (ATCC 8739), Salt Stability CaCl2 (2.5 mM) (E. coli (ATCC 8739) [2]) [µg/mL]	MIC against E. coli (ATCC 8739), Salt Stability KCl (4.5 mM) (E. coli (ATCC 8739) [2]) [µg/mL]	MIC against E. coli (ATCC 8739), Salt Stability MgCl2 (1 mM) (E. coli (ATCC 8739) [2]) [µg/mL]	MIC against E. coli (ATCC 8739), Salt Stability NaCl (150 mM) (E. coli (ATCC 8739) [2]) [µg/mL]	MIC against E. coli (ATCC 8739), Thermal Stability 0°C (E. coli (ATCC 8739) [2]) [µg/mL]	MIC against E. coli (ATCC 8739), Thermal Stability 37°C (E. coli (ATCC 8739) [2]) [µg/mL]	MIC against E. coli (ATCC 8739), Thermal Stability 100°C (E. coli (ATCC 8739) [2]) [µg/mL]	MIC range over E. coli strains [3] [µg/mL]	MIC against E. coli E12 [4] [µg/mL]	MBC against E. coli E12 [4] [µg/mL]	MIC against E. coli E9 [5] [µg/mL]	Drug sensitivity of E. coli E12 [10]	Drug sensitivity of E. coli E1 [11]	Drug sensitivity of E. coli E16 [12]	Drug sensitivity of E. coli E9 [14]	Drug sensitivity of E. coli ATCC 8739 (E. coli (ATCC 8739) [15])	Drug sensitivity of E. coli E18 [16]	Drug sensitivity of E. coli E14 [17]	also measured
RFGRFLRKIRRFIPK [C2-1]	16	16	8	2	2	0.5	2	2	2	0.5 to 16	1	1	0.5								MBC against E. coli E9 [5]: 1 µg/mL; MIC against E. coli ATCC 8739 (E. coli (ATCC 8739) [6]): 2 µg/mL; MBC against E. coli ATCC 8739 (E. coli (ATCC 8739) [6]): 4 µg/mL; MIC against E. coli E14 [7]: 16 µg/mL; MBC against E. coli E14 [7]: 16 µg/mL; MIC against E. coli E18 [8]: 2 µg/mL; MBC against E. coli E18 [8]: 4 µg/mL; MIC against E. coli E16 [9]: 16 µg/mL; MBC against E. coli E16 [9]: 64 µg/mL
CS(=O)(=O)c1ccc([C@@H](O)[C@@H](CF)NC(=O)C(Cl)Cl)cc1 [florfenicol]														R	R	R	R	S	R	R	Resistance of the 6 clinical E. coli strains (in words) [13]: resistant
CCN1CCN(c2cc3c(cc2F)c(=O)c(C(=O)O)cn3C2CC2)CC1 [enrofloxacin]														R	R	R	R	S	R	R	3-day mortality rate (E. coli (E16); 200 μg/mL, 500 μL into pectoral muscle 4h after 1.5×10^9 CFU E16): 50%; Survival rate compared with untreated group (in words) (E. coli (E16); 3 days): no difference in survival rate; Bacterial loads in the heart, liver and spleen (in words) (E. coli (E16); after 3 days of infection, vs infected untreated): affected only the heart bacterial load
RFGRFLRKIRRMRLK [C2-2]	8	4	4	0.5	0.5	0.5	8	8	8	2 to 8	2	2	2								MBC range over E. coli strains [3]: 2 to 8 µg/mL; MBC against E. coli E9 [5]: 2 µg/mL; MIC against E. coli ATCC 8739 (E. coli (ATCC 8739) [6]): 8 µg/mL; MBC against E. coli ATCC 8739 (E. coli (ATCC 8739) [6]): 8 µg/mL; MIC against E. coli E14 [7]: 8 µg/mL; MBC against E. coli E14 [7]: 8 µg/mL; MIC against E. coli E18 [8]: 4 µg/mL; MBC against E. coli E18 [8]: 4 µg/mL; MIC against E. coli E16 [9]: 8 µg/mL; MBC against E. coli E16 [9]: 8 µg/mL
penicillin														R	R	R	R	S	R	R	Resistance of the 6 clinical E. coli strains (in words) [13]: resistant
